Patent publication US20240199676A1, “ANTIVIRAL COMPOUNDS AND METHODS OF MAKING AND USING THE SAME” (Gilead Sciences, Inc., priority 2022, published 2024)

Legend:
[1] = GI S9 stability (Ex. Z), dog intestinal S9; type: in vitro ADME; conditions: pooled intestinal S9 fractions; dog intestinal S9, 1.0 mg/mL protein, 2 μM substrate, pH 7.4; read-out: GIS9 DOG T½ (per Ex. Z)
Protocol: (§1) Example Z: GI S9 stability data:
(§2) Stock solutions of test compounds in dimethyl sulfoxide (DMSO) having a final concentration of 10 mM were prepared and used in all experiments. Sekisui XenoTech (Kansas City, KS) provided pooled intestinal S9 fractions. All other chemicals were purchased from Sigma-Aldrich (St. Louis, MO) or VWR (West Chester, PA). Internal Standard/Quench (IS/Q) used to stop reactions was 100 nM labetalol in (by volume) methanol (10%) and acetonitrile (90%).
(§3) Stability in Intestinal S9 Fractions: Duplicate aliquots of test compound or positive control substrate were added to S9 stock diluted with phosphate buffered saline (137 mM NaCl, 2.7 mM KCl, 10 mM phosphate buffer), pH 7.4, to obtain a protein concentration of 1.0 mg/mL. The metabolic reactions were initiated by the addition of the substrates to the S9 reaction mixture to a final concentration of 2 μM. At 0, 10, 20, 30, 60 and 120 min, 25 μL aliquots of the reaction mixture were transferred to plates containing 225 μl of IS/Q solution. After quenching, the plates were centrifuged at 3000×g for 30 minutes. 150 μL aliquots of each supernatant were dried down then reconstituted with 300 μL water. Aliquots (10 μL) of the prepared samples were analyzed on a Thermo Q-Exactive mass spectrometer as described below.
(§4) Liquid Chromatography—Mass Spectrometry: Quantification of test compounds and control substrate was performed by analyte/internal standard peak area ratio (PAR) values measured on a Thermo Q-Exactive mass spectrometer coupled to a Dionex UltiMate 3000 HPLC with a Leap Technologies HTC PAL autosampler. The column used for analysis was a Waters Acquity BEH C18 (1.7 μm particle size, 2.1×50 mm). Mobile phase A consisted of 0.1% (v/v) formic acid in water. Mobile phase B consisted of 0.1% (v/v) formic acid in acetonitrile. Elution of analytes was achieved by a series of linear gradients varying the proportions of A and B. The mass spectrometer was calibrated on a weekly basis and mass tolerance of 5 ppm was used.
(§5) Metabolic stabilities in S9 fractions were determined by measuring the rates of disappearance of test compound and positive control substrate.
(§6) Data (% of substrate remaining) were plotted on a semi-log scale and fitted using an exponential decline model:
(§7) Where Ct—% of substrate remaining at time=t; C0—% of substrate remaining at time=0; t—time; T½—half-life The Half-life (T½) is determined by the following equation: […]
(§8) Assuming a first-order reaction, the slope (k) is extrapolated from the aforementioned plotted data.

[2] = system: Respiratory syncytial virus recombinant with luciferase (RSV-Luc5) in NHBE cells; assay: NHBE RSV-Luc5 384-well Assay (RSV FLUC NHBE 384 V2, Ex. W); type: cell-based; conditions: human respiratory syncytial virus, 72 h, read-out: EC50 RSV FLUC NHBE 384 V2 (per Ex. W)
From the text: Example W: NHBE RSV-Luc5 384-well Assay (EC50 RSVFLUC NHBE-384)
Normal Human Bronchial Epithelial (NHBE) cells were purchased from Lonza (Walkersville, MD Cat #CC2540) and maintained in BEGM Bronchial Epithelial Cell Growth Medium BulletKit (Lonza CC-3170).
Cells were thawed, expanded, and were used for experiments at passage 2. Respiratory syncytial virus recombinant with luciferase (RSV-Luc5) (≥1×10^7 Infectious Units/mL (IU/mL) determined by TCID50) was purchased from Microbiologics (Saint Cloud, MN). Viral replication was determined in NHBE cells in the following manner.
(§9) Compounds are prepared in 100% DMSO in 384-well polypropylene plates (Greiner, Monroe, NC, Cat #784201) with 8 compounds per plate in grouped replicates of 4 at 10 serially diluted concentrations (1:3). The serially diluted compounds were transferred to low dead volume Echo plates (Labcyte, Sunnyvale, CA, Cat #LP-0200).
The test compounds were spotted to 384-well assay plates (Greiner, Monroe, NC, Cat#781091) at 200 nL per well using an Echo acoustic dispenser (Labcyte, Sunnyvale, CA). NHBE cells were harvested and suspended in BEGM Bronchial Epithelial Cell Growth Medium BulletKit and seeded to the pre-spotted assay plates at 5,000 cells per well in 30 μL. RSV-Luc5 virus was diluted in BEGM Bronchial Epithelial Cell Growth Medium BulletKit at 500,000 Infectious Units (IU) per mL and 10 μL per well was added to the assay plates containing cells and compounds, for an MOI of 1. The assay plates were incubated for 3 days at 37° C. and 5% CO2. At the end of incubation, One-Glo reagent (Promega, Madison, WI, Cat #E6120) was prepared. The assay plates and One-Glo reagent were equilibrated to room temperature for at least 15 minutes. 40 μL per well of One-Glo reagent was added and the plates were incubated at room temperature for 15 minutes before reading the luminescence signal on an EnVision multimode plate reader (Perkin Elmer, Waltham, MA). Remdesivir was used as positive control and DMSO was used as negative control. Values were normalized to the positive and negative controls (as 0% and 100% replication, respectively) and data was fitted using non-linear regression analysis by Gilead's dose response tool. The EC50 value for each compound was defined as the concentration reducing the viral replication by 50%.

[3] = GI S9 stability (Ex. Z), cyno intestinal S9; type: in vitro ADME; conditions: cynomolgus monkey, pooled intestinal S9 fractions; cyno intestinal S9, 1.0 mg/mL protein, 2 μM substrate, pH 7.4; read-out: GIS9 Cyno T½ (per Ex. Z)
Protocol: as §1, §2, §3, §4, §5, §6, §7, §8

[4] = GI S9 stability (Ex. Z), rat intestinal S9; type: in vitro ADME; conditions: pooled intestinal S9 fractions; rat intestinal S9, 1.0 mg/mL protein, 2 μM substrate, pH 7.4; read-out: GIS9 Rat T½ (per Ex. Z)
Protocol: as §1, §2, §3, §4, §5, §6, §7, §8

[5] = system: Respiratory syncytial virus recombinant with luciferase (RSV-Luc5) in HEp-2 cells; assay: HEp-2 RSV-Luc5 384-well Assay (EC50 RSVFLUC Hep2-384 v2, Ex. V); type: cell-based; conditions: human respiratory syncytial virus, HEp-2, 72 h, read-out: EC50 RSV FLuc Hep-2 384 V2 (per Ex. V)
From the text: Example V: HEp-2 RSV-Luc5 384-well Assay (EC50 RSVFLUC Hep2-384 v2)
HEp-2 cell line was purchased from ATCC (Manassas, VA Cat #CCL-23) and maintained in Dulbecco's […] (DMEM) (Corning, New York, NY, Cat #15-018CM) supplemented with 10% fetal bovine serum (FBS) (Hyclone, Logan, UT, Cat #SH30071-03) and 1× Penicillin-Streptonycin-L-Glutamine (Corning, New York, NY, Cat #30-009-CI). Cells were passaged 2 times per week to maintain sub-confluent densities and were used for experiments at passage 5-20. Respiratory syncytial virus recombinant with luciferase (RSV-Luc5) (≥1 ×107 TCID50/ml) was purchased from Microbiologics (Saint Cloud, MN). Viral replication was determined in HEp-2 cells in the following manner.
as §9
The test compounds were spotted to 384-well assay plates (Greiner, Monroe, NC, Cat#781091) at 200 nL per well. HEp-2 cells were harvested and suspended in DMEM (supplemented with 10% FBS and 1× Penicillin-Streptonycin-L-Glutamine) and seeded to the pre-spotted assay plates at 4,000 cells per well in 30 μL. RSV-Luc5 viruses were diluted in DMEM (supplemented with 10% FBS and 1× Penicillin-Streptomycin-L-Glutamine) at 200,000 Infectious Units (IU) per mL and 10 μL per well was added to the assay plates containing cells and compounds, for an MOI=0.5. The assay plates were incubated for 3 days at 37° C. and 5% CO2. At the end of incubation, One-Glo reagent (Promega, Madison, WI, Cat #E6120) was prepared. The assay plates and One-Glo reagent were equilibrated to room temperature for at least 15 minutes. 40 μL per well of One-Glo reagent was added and the plates were incubated at room temp for 15 minutes before reading the luminescence signal on an EnVision multimode plate reader (Perkin Elmer, Waltham, MA). Remdesivir was used as positive control and DMSO was used as negative control. Values were normalized to the positive and negative controls (as 0% and 100% replication, respectively) and data was fitted using non-linear regression analysis by Gilead's dose response tool. The EC50 value for each compound was then determined as the concentration reducing the viral replication by 50%.

Row | SMILES | half-life at 2 μM [1] | EC50 [2] | half-life at 2 μM [3] | half-life at 2 μM [4] | EC50 [5]
1 | CC(C)C(=O)Nc1ncnn2c([C@@H]3O[C@](C#N)(COC(=O)C(C)C)[C@@H](OC(=O)C(C)C)[C@H]3OC(=O)C(C)C)ccc12 [Compound 21, (2R,3S,4S,5S)-2-cyano-5-(4-isobutyramidopyrrolo[2,1-f][1,2,4]triazin-7-yl)-2-((isobutyryloxy)methyl)tetrahydrofuran-3,4-diyl bis(2-methylpropanoate)] | 5 min | 9.08 µM | 4 min | 1 min | 
2 | CC(=O)Nc1ncnn2c([C@@H]3O[C@](C#N)(COC(C)=O)[C@@H](O)[C@H]3O)ccc12 [Compound 31] |  | 50 µM |  |  | 50 µM
